# Assay results reported in ChEMBL document CHEMBL5291721, “A preclinical secondary pharmacology resource illuminates target-adverse drug reaction associations of marketed drugs” (Nat Commun, 2023).
# Experiments:
# [1] = biological target: T1, Amine oxidase [flavin-containing] A (Homo sapiens, UniProt P21397); format: functional
# T1 sequence (P21397 whole entry): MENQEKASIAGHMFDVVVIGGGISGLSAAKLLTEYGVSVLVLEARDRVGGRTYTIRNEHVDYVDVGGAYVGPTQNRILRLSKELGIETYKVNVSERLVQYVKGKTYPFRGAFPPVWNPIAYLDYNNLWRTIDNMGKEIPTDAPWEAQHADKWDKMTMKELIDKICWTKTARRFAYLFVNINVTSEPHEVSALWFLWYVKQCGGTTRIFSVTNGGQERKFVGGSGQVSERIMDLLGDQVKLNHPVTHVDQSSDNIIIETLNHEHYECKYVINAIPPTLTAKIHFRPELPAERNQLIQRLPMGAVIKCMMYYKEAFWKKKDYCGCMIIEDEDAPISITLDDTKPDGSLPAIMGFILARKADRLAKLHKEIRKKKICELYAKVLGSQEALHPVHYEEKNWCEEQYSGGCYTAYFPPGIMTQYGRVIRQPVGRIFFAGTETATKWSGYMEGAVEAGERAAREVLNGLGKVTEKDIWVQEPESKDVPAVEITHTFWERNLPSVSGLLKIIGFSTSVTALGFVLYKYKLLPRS
# [2] = biological target: Glutamate receptor ionotropic, NMDA 1 (Rattus norvegicus, UniProt P35439)
# [3] = biological target: D(1A) dopamine receptor (Homo sapiens, UniProt P21728)
# [4] = biological target: Beta-2 adrenergic receptor (Homo sapiens, UniProt P07550); format: functional, cell-based
# [5] = biological target: Vasopressin V1a receptor (Homo sapiens, UniProt P37288)
# [6] = biological target: T2, Alpha-2A adrenergic receptor (Homo sapiens, UniProt P08913); format: functional, cell-based
# T2 sequence (P08913 whole entry): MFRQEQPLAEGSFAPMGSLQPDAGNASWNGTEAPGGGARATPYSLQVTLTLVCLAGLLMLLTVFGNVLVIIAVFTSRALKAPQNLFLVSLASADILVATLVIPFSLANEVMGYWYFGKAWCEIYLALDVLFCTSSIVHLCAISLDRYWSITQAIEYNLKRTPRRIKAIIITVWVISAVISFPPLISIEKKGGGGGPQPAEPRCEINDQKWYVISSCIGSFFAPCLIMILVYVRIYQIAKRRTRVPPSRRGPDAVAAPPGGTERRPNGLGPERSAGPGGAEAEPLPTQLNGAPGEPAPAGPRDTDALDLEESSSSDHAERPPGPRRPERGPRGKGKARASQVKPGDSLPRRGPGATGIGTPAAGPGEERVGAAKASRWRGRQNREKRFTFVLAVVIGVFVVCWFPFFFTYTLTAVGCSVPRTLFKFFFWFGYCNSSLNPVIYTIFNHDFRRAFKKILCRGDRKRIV
# [7] = biological target: Sodium-dependent dopamine transporter (Homo sapiens, UniProt Q01959)
# [8] = biological target: T3, Cholecystokinin receptor type A (Homo sapiens, UniProt P32238)
# T3 sequence (P32238 whole entry): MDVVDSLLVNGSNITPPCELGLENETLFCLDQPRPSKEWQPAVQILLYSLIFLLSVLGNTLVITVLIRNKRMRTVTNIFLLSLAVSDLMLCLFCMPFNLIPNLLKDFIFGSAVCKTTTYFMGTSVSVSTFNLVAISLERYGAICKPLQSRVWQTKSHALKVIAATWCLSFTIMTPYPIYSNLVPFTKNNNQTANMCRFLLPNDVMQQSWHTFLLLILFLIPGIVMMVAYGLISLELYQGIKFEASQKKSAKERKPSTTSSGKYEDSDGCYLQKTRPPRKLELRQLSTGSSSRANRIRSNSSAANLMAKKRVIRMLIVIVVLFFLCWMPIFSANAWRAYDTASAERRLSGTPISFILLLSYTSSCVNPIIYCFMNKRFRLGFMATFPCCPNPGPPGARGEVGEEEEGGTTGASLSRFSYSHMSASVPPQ
# [9] = biological target: T4, Progesterone receptor (Homo sapiens, UniProt P06401)
# T4 sequence (P06401 whole entry): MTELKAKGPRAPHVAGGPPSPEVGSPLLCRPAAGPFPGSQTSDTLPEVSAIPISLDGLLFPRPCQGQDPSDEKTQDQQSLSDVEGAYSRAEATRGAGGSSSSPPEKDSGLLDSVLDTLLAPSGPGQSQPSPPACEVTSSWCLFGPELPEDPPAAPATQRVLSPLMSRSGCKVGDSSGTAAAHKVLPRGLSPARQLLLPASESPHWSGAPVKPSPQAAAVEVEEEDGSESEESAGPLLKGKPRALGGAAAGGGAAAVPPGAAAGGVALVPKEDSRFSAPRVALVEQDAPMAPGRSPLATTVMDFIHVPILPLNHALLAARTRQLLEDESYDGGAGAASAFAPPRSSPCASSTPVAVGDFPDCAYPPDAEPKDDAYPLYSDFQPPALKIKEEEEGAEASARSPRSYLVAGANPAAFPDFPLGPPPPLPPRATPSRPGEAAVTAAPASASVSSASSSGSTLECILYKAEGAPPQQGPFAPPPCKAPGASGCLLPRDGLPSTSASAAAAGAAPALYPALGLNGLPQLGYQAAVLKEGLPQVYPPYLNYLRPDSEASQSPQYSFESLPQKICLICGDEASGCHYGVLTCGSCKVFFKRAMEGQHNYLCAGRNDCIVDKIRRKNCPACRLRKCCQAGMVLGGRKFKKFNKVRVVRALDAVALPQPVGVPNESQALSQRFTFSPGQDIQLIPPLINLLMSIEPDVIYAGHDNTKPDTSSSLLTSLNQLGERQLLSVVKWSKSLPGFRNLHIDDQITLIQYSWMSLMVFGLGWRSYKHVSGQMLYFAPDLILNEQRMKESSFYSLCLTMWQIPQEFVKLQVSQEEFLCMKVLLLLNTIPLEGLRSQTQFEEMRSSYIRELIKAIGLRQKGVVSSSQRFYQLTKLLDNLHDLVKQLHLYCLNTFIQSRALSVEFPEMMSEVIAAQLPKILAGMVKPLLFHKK
# [10] = biological target: Beta-1 adrenergic receptor (Homo sapiens, UniProt P08588); format: functional
# [11] = biological target: 3',5'-cyclic-AMP phosphodiesterase 4D (Homo sapiens, UniProt Q08499); format: functional
# [12] = biological target: Melanocortin receptor 3 (Homo sapiens, UniProt P41968)
# [13] = biological target: 5-hydroxytryptamine receptor 2A (Homo sapiens, UniProt P28223); format: functional, cell-based
# Also: assay procedure not described here.
# 3',5'-cyclic-AMP phosphodiesterase 4D, sequence (Q08499 whole entry): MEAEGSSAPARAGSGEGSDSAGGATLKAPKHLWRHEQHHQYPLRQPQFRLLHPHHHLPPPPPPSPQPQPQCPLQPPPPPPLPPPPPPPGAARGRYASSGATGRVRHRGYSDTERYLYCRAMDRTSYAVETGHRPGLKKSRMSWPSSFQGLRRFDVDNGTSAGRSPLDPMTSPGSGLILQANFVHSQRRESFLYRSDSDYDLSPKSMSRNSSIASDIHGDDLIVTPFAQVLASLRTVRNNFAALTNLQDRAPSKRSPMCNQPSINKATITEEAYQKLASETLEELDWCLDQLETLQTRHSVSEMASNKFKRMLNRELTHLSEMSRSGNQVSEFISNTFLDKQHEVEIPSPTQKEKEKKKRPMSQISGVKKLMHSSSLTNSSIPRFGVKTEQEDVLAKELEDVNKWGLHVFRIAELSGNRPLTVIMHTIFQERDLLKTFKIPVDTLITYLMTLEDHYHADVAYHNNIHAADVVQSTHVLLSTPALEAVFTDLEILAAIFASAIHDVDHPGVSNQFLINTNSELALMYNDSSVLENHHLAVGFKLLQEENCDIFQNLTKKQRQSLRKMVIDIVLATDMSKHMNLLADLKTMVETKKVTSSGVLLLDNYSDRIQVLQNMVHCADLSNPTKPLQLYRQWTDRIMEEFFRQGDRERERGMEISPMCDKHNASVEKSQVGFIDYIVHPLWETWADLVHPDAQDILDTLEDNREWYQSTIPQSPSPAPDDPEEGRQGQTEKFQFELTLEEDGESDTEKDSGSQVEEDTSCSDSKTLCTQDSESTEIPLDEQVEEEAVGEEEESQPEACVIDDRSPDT
# Beta-2 adrenergic receptor, sequence (P07550 whole entry): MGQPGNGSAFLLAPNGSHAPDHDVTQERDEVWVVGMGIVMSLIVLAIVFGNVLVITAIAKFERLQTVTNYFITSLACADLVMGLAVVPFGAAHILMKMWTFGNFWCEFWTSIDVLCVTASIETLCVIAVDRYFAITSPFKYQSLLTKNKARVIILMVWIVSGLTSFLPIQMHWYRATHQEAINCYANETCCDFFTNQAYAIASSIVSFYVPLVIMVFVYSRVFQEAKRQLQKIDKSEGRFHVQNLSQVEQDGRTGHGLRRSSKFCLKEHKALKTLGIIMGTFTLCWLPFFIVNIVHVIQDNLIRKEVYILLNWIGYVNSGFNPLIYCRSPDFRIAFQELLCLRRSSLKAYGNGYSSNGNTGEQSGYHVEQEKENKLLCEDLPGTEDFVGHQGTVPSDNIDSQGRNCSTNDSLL
# 5-hydroxytryptamine receptor 2A, sequence (P28223 whole entry): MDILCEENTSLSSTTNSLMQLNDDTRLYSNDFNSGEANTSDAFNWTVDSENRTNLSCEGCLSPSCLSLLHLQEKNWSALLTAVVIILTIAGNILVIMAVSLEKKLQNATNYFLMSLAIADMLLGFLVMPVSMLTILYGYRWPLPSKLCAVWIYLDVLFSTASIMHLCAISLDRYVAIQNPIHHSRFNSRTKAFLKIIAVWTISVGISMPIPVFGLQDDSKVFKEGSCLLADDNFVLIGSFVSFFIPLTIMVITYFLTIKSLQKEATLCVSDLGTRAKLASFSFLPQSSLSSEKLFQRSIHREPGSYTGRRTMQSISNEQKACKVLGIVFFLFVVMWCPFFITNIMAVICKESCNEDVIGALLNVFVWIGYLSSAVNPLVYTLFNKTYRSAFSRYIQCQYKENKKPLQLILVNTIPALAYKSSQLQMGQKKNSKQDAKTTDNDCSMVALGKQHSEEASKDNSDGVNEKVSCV
# Melanocortin receptor 3, sequence (P41968 whole entry): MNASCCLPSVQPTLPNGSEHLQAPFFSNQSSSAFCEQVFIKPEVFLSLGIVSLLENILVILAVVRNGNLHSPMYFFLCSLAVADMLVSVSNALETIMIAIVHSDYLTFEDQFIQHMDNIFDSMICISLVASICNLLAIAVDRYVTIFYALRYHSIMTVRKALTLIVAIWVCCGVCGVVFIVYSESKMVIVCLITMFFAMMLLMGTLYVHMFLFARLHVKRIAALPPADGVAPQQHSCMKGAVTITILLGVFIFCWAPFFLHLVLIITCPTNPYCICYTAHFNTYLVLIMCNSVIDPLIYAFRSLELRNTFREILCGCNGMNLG
# Sodium-dependent dopamine transporter, sequence (Q01959 whole entry): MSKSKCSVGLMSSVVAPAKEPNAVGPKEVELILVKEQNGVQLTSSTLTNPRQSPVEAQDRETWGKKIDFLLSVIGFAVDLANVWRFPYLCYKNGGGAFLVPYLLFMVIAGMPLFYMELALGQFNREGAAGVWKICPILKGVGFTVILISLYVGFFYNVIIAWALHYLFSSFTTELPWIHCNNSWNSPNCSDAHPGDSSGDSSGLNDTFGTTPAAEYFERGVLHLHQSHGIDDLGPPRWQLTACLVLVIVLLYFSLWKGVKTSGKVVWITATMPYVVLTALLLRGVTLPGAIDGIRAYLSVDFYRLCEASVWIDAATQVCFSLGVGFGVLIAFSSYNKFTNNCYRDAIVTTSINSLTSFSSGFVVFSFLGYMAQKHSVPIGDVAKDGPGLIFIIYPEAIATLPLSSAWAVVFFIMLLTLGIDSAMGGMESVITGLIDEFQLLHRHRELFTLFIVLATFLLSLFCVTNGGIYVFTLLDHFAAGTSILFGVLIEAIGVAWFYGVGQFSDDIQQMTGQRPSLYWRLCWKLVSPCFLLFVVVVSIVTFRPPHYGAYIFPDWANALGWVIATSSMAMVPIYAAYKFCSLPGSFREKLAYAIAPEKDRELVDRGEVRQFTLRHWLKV
# Vasopressin V1a receptor, sequence (P37288 whole entry): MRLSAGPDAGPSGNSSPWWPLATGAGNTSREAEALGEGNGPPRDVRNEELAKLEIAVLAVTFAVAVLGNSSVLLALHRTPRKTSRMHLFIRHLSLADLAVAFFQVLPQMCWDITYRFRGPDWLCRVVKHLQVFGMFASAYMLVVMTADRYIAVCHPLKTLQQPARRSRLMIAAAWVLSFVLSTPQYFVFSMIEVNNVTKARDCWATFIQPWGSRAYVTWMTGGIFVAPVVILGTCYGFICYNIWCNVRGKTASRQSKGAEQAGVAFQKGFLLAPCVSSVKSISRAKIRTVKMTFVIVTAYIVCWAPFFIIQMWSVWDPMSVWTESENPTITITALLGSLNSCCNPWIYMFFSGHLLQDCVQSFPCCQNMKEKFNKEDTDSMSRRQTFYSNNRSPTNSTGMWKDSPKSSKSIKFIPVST
# D(1A) dopamine receptor, sequence (P21728 whole entry): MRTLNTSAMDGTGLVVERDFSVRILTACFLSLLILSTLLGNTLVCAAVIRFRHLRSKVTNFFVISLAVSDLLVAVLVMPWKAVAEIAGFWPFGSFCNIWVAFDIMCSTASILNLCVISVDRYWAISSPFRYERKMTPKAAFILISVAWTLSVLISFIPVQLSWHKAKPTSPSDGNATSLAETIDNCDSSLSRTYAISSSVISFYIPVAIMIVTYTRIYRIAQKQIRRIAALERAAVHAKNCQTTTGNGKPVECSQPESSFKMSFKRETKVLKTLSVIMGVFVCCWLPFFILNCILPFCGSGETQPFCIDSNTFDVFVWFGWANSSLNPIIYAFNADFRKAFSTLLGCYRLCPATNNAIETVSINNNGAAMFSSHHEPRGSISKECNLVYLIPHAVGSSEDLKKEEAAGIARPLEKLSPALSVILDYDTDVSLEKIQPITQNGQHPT
# Beta-1 adrenergic receptor, sequence (P08588 whole entry): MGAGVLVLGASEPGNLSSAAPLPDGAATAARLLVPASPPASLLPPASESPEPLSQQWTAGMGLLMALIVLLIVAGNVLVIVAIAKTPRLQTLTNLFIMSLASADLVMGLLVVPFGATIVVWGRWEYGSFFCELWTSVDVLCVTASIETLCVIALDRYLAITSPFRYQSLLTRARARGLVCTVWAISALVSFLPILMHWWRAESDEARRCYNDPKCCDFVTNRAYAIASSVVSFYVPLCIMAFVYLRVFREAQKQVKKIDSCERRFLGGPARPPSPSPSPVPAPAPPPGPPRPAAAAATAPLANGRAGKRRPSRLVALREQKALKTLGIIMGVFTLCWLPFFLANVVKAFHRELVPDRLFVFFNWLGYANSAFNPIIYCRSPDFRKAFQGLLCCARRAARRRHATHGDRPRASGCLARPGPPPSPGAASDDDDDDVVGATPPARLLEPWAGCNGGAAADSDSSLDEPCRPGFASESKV
AC50 [2] [µM],AC50 [6] [µM],AC50 [7] [µM],AC50 [10] [µM],AC50 [13] [µM],SMILES,AC50 [1] [µM],AC50 [3] [µM],AC50 [4] [µM],AC50 [5] [µM],AC50 [8] [µM],AC50 [9] [µM],AC50 [11] [µM],AC50 [12] [µM]
> 30,> 30,–,> 30,–,CC(=O)NC[C@H]1CN(c2ccc(N3CCOCC3)c(F)c2)C(=O)O1 [LINEZOLID],> 30,–,> 30,–,–,–,> 30,> 30
–,–,–,–,–,O=C1[C@@H]2[C@H]3CC[C@H](C3)[C@@H]2C(=O)N1C[C@@H]1CCCC[C@H]1CN1CCN(c2nsc3ccccc23)CC1 [LURASIDONE],> 30,–,> 30,> 30,–,> 30,> 30,> 30
> 10,> 10,> 30,> 10,–,C[C@H](CS)C(=O)N1CCC[C@H]1C(=O)O [CAPTOPRIL],> 10,–,> 30,–,> 30,–,> 30,> 30
> 30,> 30,> 30,> 30,> 30,C[C@H](Cn1cnc2c(N)ncnc21)OCP(=O)(O)O [TENOFOVIR ANHYDROUS],> 30,–,–,> 30,> 30,–,> 30,> 30
> 30,> 30,> 30,> 30,> 30,CC(C)C[C@H](NC(=O)[C@H](Cc1ccccc1)NC(=O)c1cnccn1)B(O)O [BORTEZOMIB],> 30,–,–,> 30,> 30,–,> 30,> 30
> 10,> 10,> 10,> 10,–,Nc1nnc(-c2cccc(Cl)c2Cl)c(N)n1 [LAMOTRIGINE],16,–,> 30,> 10,> 30,–,> 30,> 30
> 10,> 10,> 10,> 10,> 10,CNC1(C)C2CCC(C2)C1(C)C (centres undefined) [MECAMYLAMINE],> 10,–,–,> 10,> 10,–,> 30,> 10
> 30,> 30,> 30,> 30,> 30,CC(=O)SCC(Cc1ccccc1)C(=O)NCC(=O)OCc1ccccc1 (centres undefined) [RACECADOTRIL],> 30,–,–,> 30,> 30,–,> 30,> 30
> 10,> 30,> 30,2.5,> 30,CCOc1ccccc1OCCN[C@H](C)Cc1ccc(OC)c(S(N)(=O)=O)c1 [TAMSULOSIN],> 10,–,–,> 30,> 30,–,> 30,> 30
–,–,–,–,–,CC(C)(Oc1ccc(Cl)cc1)C(=O)NC(=O)NCN1CCOCC1 [PLAFIBRIDE],–,> 30,–,–,–,> 30,–,–
–,–,–,–,–,C=CCOc1ccc(CC(=O)O)cc1Cl [ALCLOFENAC],–,> 30,–,–,–,> 30,–,–
–,–,–,–,–,CO[C@@]1(NC(=O)C(C(=O)O)c2ccc(O)cc2)C(=O)N2C(C(=O)O)=C(CSc3nnnn3C)CO[C@@H]21 (some centres undefined) [MOXALACTAM],–,> 30,–,–,–,> 30,–,–

SMILES,AC50 [2] [µM],AC50 [6] [µM],AC50 [7] [µM],AC50 [10] [µM],AC50 [13] [µM],AC50 [1] [µM],AC50 [3] [µM],AC50 [4] [µM],AC50 [5] [µM],AC50 [8] [µM],AC50 [9] [µM],AC50 [11] [µM],AC50 [12] [µM]
CS(=O)(=O)Nc1ccc([N+](=O)[O-])cc1Oc1ccccc1 [NIMESULIDE],> 30,> 30,9,> 30,–,> 30,> 30,> 30,> 30,6.2,> 30,> 30,> 30
NCCCNCCSP(=O)(O)O [AMIFOSTINE],> 30,> 30,> 30,> 30,–,> 30,–,> 30,–,> 30,–,> 30,> 30
CC[N+](CC)(CCNC(=O)C(=O)NCC[N+](CC)(CC)Cc1ccccc1Cl)Cc1ccccc1Cl [AMBENONIUM],> 30,> 30,> 30,> 30,> 30,> 30,–,–,> 30,> 30,–,> 30,> 30
CN(C)CCN(Cc1ccccc1)c1ccccn1 [TRIPELENNAMINE],> 10,> 10,1.3,> 30,7.3,> 10,19.4,–,> 10,> 10,–,> 10,> 10
CC(=O)Oc1ccccc1C(=O)O [ASPIRIN],> 10,> 10,> 30,> 10,–,> 30,> 30,> 30,> 30,> 30,> 30,> 30,> 30
Cc1c(C)c2c(c(C)c1O)CCC(C)(COc1ccc(CC3SC(=O)NC3=O)cc1)O2 (centres undefined) [TROGLITAZONE],> 30,> 30,23.7,20,–,> 30,8.59,> 30,> 30,> 30,3.55,2.88,> 30
CN(C)CCCC1(c2ccc(F)cc2)OCc2cc(C#N)ccc21 (centres undefined) [CITALOPRAM],> 10,> 10,–,> 10,–,> 10,–,> 30,> 10,> 30,> 30,> 30,> 30
